The target of test [1] is T1, PI3K delta (p110δ) (Homo sapiens, UniProt O00329).
T1 construct: purchased Millipore, Billerica, Mass., USA
In words: Luciferase-based luminescence assay (Kinase GLO), PI3K delta. The test is classed as biochemical. The conditions noted are these: for pIC50: 6.86 nM enzyme, 50 μM PIP2, 25 μM ATP, 2 hours reaction; for α/δ ratio: ratio of IC50 against PI3Kα over IC50 against PI3Kδ. Here is the method:
(§1) PI3K catalyzes the conversion of phosphatidylinositol-4,5-bisphosphate (PIP2) and ATP to phosphatidylinositol-3,4,5-trisphosphate (PIP3) and ADP. PI3K enzymatic activity was determined by measuring the amount of ATP consumed following the kinase reaction using a luciferase-based luminescence assay (Kinase GLO®, Promega Corp., Madison, Wis., USA) in a reaction buffer. The reaction buffer contained 50 mM HEPES, pH 7.5, 3 mM MgCl2, 1 mM EGTA, 100 mM NaCl, 0.03% CHAPS, and 2 mM DTT. Compounds for testing were dissolved and serially diluted in 100% DMSO (total of 10 concentrations), and then diluted 1:25 in the reaction buffer. PI3K enzyme solutions were prepared by diluting PI3K alpha (Invitrogen Corp., Carlsbad, Calif., USA) or PI3K delta (Millipore, Billerica, Mass., USA) in the reaction buffer to 4× the final assay concentration. The final concentrations of enzymes were 1.65 nM and 6.86 nM for PI3K alpha and PI3K delta, respectively. A substrate solution was prepared by mixing PIP2 and ATP in reaction buffer at 2× the final assay concentration. The final concentrations were 50 μM and 25 μM for PIP2 and ATP, respectively. To individual wells of white low volume 384-well assay plates were added 2.5 μl each of the compound and kinase mixtures, followed by shaking. The reactions were started by adding 5 μl of substrate mixture per well and shaking. The assay plates were covered and reactions were allowed to proceed for 1 hour (PI3K alpha) or 2 hours (PI3K delta), after which 10 μl of Kinase GLO® reagent was added. The plates were briefly centrifuged and incubated for 10 minutes, after which luminescence was measured using a FlexStation plate reader (Molecular Devices, Sunnyvale, Calif., USA). IC50 values were determined by curve fitting using Graphpad Prism software (Graphpad Software, La Jolla, Calif., USA).
A general note: In Kinase-Glo more light means more ATP remaining.

Test [2] concerns the target T2, PI3K alpha (p110α) (Homo sapiens, UniProt P42336).
T2 construct: purchased Invitrogen Corp., Carlsbad, Calif., USA
In words: Luciferase-based luminescence assay (Kinase GLO), PI3K alpha. The test is classed as biochemical. The conditions noted are these: 1.65 nM enzyme, 50 μM PIP2, 25 μM ATP, 1 hour reaction. Here is the method:
as §1

pIC50: −log10 of the molar value.

The values below come from patent US20140088103A1, “(FUSED RING ARYLAMINO AND HETEROCYCLYLAMINO) PYRIMIDINYL AND 1,3,5-TRIAZINYL BENZIMIDAZOLES, PHARMACEUTICAL COMPOSITIONS THEREOF, AND THEIR USE IN TREATING PROLIFERATIVE DISEASES” (MEI PHARMA, INC., priority 2011, published 2014).

For orientation: pIC50 means the IC50 on a negative log10 scale, so that one unit is a factor of ten.

T2 sequence (P42336 whole entry): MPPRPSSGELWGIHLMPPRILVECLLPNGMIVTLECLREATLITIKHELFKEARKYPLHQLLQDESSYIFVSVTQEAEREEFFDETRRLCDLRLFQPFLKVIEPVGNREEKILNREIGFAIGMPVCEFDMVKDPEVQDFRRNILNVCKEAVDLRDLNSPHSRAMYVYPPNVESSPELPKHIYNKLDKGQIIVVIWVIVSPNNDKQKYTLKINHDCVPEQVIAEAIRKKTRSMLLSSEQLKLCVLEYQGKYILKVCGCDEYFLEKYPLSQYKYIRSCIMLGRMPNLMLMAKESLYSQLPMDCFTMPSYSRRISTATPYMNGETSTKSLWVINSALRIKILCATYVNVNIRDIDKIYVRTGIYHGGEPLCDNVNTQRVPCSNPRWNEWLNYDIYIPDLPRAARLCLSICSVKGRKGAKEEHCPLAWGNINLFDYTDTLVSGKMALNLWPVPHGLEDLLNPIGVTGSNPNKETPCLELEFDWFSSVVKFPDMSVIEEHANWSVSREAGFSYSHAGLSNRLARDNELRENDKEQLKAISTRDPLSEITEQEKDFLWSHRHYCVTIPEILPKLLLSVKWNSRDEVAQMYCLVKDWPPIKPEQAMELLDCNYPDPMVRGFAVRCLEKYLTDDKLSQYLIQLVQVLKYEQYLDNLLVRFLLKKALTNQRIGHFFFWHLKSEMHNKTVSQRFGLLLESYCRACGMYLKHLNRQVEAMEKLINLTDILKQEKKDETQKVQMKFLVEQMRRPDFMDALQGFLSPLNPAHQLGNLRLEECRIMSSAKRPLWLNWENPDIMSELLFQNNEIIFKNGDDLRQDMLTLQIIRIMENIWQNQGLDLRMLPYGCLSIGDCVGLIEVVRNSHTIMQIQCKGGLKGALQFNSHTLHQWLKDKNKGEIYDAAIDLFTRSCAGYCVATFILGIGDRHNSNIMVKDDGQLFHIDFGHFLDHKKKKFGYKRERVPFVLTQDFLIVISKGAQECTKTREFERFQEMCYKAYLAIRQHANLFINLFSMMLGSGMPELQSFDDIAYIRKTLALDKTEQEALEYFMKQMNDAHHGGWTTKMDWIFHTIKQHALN
T2 sequence (P27986 whole entry partner): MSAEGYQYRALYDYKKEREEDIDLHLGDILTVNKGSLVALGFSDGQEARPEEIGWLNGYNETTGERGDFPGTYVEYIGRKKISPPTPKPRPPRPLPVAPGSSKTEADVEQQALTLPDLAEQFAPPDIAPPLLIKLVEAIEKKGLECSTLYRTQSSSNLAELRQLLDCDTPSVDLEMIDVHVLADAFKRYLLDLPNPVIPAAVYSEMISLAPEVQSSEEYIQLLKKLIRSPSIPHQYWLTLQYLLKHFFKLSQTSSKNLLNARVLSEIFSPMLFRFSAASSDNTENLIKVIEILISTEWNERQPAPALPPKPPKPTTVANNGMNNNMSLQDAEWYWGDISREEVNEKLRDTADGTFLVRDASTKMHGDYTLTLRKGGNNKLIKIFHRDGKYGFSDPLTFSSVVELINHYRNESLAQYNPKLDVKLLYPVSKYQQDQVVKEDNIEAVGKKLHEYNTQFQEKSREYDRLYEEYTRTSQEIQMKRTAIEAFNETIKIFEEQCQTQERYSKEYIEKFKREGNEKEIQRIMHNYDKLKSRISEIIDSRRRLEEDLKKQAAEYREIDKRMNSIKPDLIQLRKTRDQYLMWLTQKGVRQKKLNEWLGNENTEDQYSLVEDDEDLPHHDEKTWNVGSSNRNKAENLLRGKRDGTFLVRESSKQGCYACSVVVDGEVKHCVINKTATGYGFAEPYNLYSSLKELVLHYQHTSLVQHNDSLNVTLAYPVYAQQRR
T1 sequence (O00329 whole entry): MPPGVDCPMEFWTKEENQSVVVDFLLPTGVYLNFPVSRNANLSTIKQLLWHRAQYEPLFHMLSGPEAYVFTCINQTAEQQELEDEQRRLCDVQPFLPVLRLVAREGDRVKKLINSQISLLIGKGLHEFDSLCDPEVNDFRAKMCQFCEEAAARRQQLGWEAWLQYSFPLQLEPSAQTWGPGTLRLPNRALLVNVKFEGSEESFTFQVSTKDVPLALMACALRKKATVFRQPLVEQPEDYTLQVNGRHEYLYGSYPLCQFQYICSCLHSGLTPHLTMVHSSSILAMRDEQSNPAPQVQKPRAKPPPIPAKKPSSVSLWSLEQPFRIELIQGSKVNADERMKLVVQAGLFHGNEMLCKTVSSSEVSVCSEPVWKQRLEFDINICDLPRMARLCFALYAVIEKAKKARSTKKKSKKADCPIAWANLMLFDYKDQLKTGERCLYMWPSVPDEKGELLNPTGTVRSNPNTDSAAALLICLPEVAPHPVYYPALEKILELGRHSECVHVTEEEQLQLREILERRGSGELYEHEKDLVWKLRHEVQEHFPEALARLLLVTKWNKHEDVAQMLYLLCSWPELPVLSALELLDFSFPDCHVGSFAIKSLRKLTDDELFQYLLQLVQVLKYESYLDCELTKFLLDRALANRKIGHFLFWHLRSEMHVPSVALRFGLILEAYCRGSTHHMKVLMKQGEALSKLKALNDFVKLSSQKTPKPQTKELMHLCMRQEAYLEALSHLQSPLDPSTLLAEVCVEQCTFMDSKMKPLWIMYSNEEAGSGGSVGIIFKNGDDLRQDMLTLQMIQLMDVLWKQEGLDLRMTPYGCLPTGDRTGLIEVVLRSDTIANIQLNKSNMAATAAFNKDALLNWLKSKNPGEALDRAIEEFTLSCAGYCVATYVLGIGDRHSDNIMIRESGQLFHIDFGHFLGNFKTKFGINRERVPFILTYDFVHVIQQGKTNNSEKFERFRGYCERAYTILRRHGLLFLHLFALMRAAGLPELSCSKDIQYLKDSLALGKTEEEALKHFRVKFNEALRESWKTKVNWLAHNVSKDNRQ
T1 sequence (P27986 whole entry partner): as the sequence (P27986 whole entry partner) above

In the case of `FC(F)c1nc2ccccc2n1-c1nc(NC2CCCc3ccccc32)nc(N2CCOCC2)n1` (stereo not drawn) [Compound A1, 4-(2-(difluoromethyl)-1H-benzo[d]imidazol-1-yl)-6-morpholino-N-(1,2,3,4-tetrahydronaphthalen-1-yl)-1,3,5-triazin-2-amine], in test [1], the pIC50 is 6.70 to 7.00 and the α/δ ratio entry was “A′ (A′ represents a ratio of greater than 8)”. Besides, in test [2], the negative logarithm of the IC50 (pIC50) is less than 6.30.

`FC(F)c1nc2ccccc2n1-c1nc(N[C@H]2CCCc3ccccc32)nc(N2CCOCC2)n1` [Compound A2, (S)-4-(2-(difluoromethyl)-1H-benzo[d]imidazol-1-yl)-6-morpholino-N-(1,2,3,4-tetrahydronaphthalen-1-yl)-1,3,5-triazin-2-amine]: in test [1], the pIC50 is not below 7.00 and the α/δ ratio entry is reported as “A′ (A′ represents a ratio of greater than 8)”. In test [2], this compound had a pIC50 of less than 6.30.

For the compound `FC(F)c1nc2ccccc2n1-c1nc(N[C@@H]2CCCc3ccccc32)nc(N2CCOCC2)n1` [Compound A3, (R)-4-(2-(difluoromethyl)-1H-benzo[d]imidazol-1-yl)-6-morpholino-N-(1,2,3,4-tetrahydronaphthalen-1-yl)-1,3,5-triazin-2-amine], in test [1], the pIC50 was less than 6.30 and the α/δ ratio result was “B′ (B′ represents a ratio of no less than 4 but no greater than 8)”. This compound had a pIC50 in test [2] of less than 6.30.

Regarding `FC(F)c1nc2ccccc2n1-c1nc(NC2CCc3ccccc32)nc(N2CCOCC2)n1` (stereo not drawn) [Compound A4, 4-(2-(difluoromethyl)-1H-benzo[d]imidazol-1-yl)-N-(2,3-dihydro-1H-inden-1-yl)-6-morpholino-1,3,5-triazin-2-amine], in test [1], the pIC50 is not below 7.00 and the α/δ ratio result was “A′ (A′ represents a ratio of greater than 8)”. In test [2], this compound showed a pIC50 of less than 6.30.

For the compound `FC(F)c1nc2ccccc2n1-c1nc(N[C@H]2CCc3ccccc32)nc(N2CCOCC2)n1` [Compound A5, (S)-4-(2-(difluoromethyl)-1H-benzo[d]imidazol-1-yl)-N-(2,3-dihydro-1H-inden-1-yl)-6-morpholino-1,3,5-triazin-2-amine], in test [1], the pIC50 was 6.70 to 7.00 and the α/δ ratio entry was “A′ (A′ represents a ratio of greater than 8)”. In addition, in test [2], the pIC50 is less than 6.30.

On to `FC(F)c1nc2ccccc2n1-c1nc(N[C@@H]2CCc3ccccc32)nc(N2CCOCC2)n1` [Compound A6, (R)-4-(2-(difluoromethyl)-1H-benzo[d]imidazol-1-yl)-N-(2,3-dihydro-1H-inden-1-yl)-6-morpholino-1,3,5-triazin-2-amine], for which, in test [1], the pIC50 is 6.30 to 6.70 and the α/δ ratio result was “C′ (C′ represents a ratio of greater than 2 but less than 4)”. In addition, the pIC50 in test [2] is less than 6.30.

For `FC(F)c1nc2ccccc2n1-c1nc(NC2CCc3cc(Cl)ccc32)nc(N2CCOCC2)n1` (stereo not drawn) [Compound A7, N-(5-chloro-2,3-dihydro-1H-inden-1-yl)-4-(2-(difluoromethyl)-1H-benzo[d]imidazol-1-yl)-6-morpholino-1,3,5-triazin-2-amine], the pIC50 in test [1] and in test [2] was less than 6.30 in each case. For the same compound, the α/δ ratio result in test [1] is “A′ (A′ represents a ratio of greater than 8)”.

Turning to `FC(F)c1nc2ccccc2n1-c1nc(NC2CCc3ccc(Cl)cc32)nc(N2CCOCC2)n1` (stereo not drawn) [Compound A8, N-(6-chloro-2,3-dihydro-1H-inden-1-yl)-4-(2-(difluoromethyl)-1H-benzo[d]imidazol-1-yl)-6-morpholino-1,3,5-triazin-2-amine], in test [1], the pIC50 is 6.30 to 6.70 and the α/δ ratio entry is recorded as “A′ (A′ represents a ratio of greater than 8)”. In addition, the pIC50 in test [2] was less than 6.30.

With `COc1ccc2c(c1)CCC2Nc1nc(N2CCOCC2)nc(-n2c(C(F)F)nc3ccccc32)n1` (stereo not drawn) [Compound A9, 4-(2-(difluoromethyl)-1H-benzo[d]imidazol-1-yl)-N-(5-methoxy-2,3-dihydro-1H-inden-1-yl)-6-morpholino-1,3,5-triazin-2-amine], in test [1], the pIC50 was 6.30 to 6.70 and the α/δ ratio result is “C′ (C′ represents a ratio of greater than 2 but less than 4)”. The compound further had a pIC50 in test [2] of less than 6.30.

`COc1ccc2c(c1)C(Nc1nc(N3CCOCC3)nc(-n3c(C(F)F)nc4ccccc43)n1)CC2` (stereo not drawn) [Compound A10, 4-(2-(difluoromethyl)-1H-benzo[d]imidazol-1-yl)-N-(6-methoxy-2,3-dihydro-1H-inden-1-yl)-6-morpholino-1,3,5-triazin-2-amine]: in test [1], the pIC50 is 6.30 to 6.70 and the α/δ ratio entry is “C′ (C′ represents a ratio of greater than 2 but less than 4)”. In test [2], this compound gave a pIC50 of less than 6.30.

As for `FC(F)c1nc2ccccc2n1-c1nc(NCc2ccccc2)nc(N2CCOCC2)n1` [Ref. 1, N-benzyl-4-(2-(difluoromethyl)-1H-benzo[d]imidazol-1-yl)-6-morpholino-1,3,5-triazin-2-amine, reference compound], in test [1], the pIC50 was 6.70 to 7.00 and the α/δ ratio entry was “D′ (D′ represents a ratio of no greater than 2)”. The pIC50 in test [2] is 6.70 to 7.00.
